Measurements published in patent publication US20240091191A1, “USES OF CORYLIN AND/OR NEOBAVAISOFLAVONE IN TREATING SYMPTOMS ASSOCIATED WITH SENESCENCE” (Chang Gung University, priority 2022, published 2024).

Key:
HUVECs [1] = experiment: Population doubling level (PDL) of HUVECs; assay type: cell-based, human
Method: HUVECs were cultured in M199 medium supplemented with 4-(2-hydroxyethyl)-1-piperazineethanesulfonic acid (HEPES), endothelial cell growth supplement (ECGS; Millipore), heparin, NaHCO3, L-glutamine, sodium pyruvate, and 20% fetal bovine serum (FBS; final concentration). HaCaT cells were cultured in DMEM supplemented with 10% FBS and 2 mM glutamine. The cells were grown in an atmosphere of 5% CO2 at 37° C., and passaged to maintain under 90% confluency. The cells were propagated until senescence, and those in every passage were collected for further analysis, numbers of which were determined when sub-cultured.

HaCaT cells [2] = experiment: Intracellular NAD+ content; assay type: cell-based; conditions: 5 μM corylin or 20 μM neobavaisoflavone, 24 hours
Method: HaCaT cells were seeded into a 6-cm dish (4×10^5 cells/dish), and incubated with 5 μM corylin or 20 μM neobavaisoflavone, or without drugs, for 24 hours, before being harvested. The harvested cells were extracted with 250 μl of 1 M glacial formic acid saturated with butanol, incubated for 30 minutes on ice. Then, 62.5 μl of 100% TCA (w/v) was added to each sample, and the samples were incubated on ice for an additional 15 minutes. The samples were pelleted by centrifugation at 14,000×g for 5 minutes, and the supernatant was transferred to another eppendorf tube. The pellets were then washed with 125 μl of 20% TCA, and centrifuged, and the supernatant was combined with the aforementioned supernatant. The combined supernatants were used for the following tests. […] After incubation at 30° C. for 20 minutes, the absorbance of each sample was measured at 340 nm. The NAD^+ level of the cells in each supernatant sample was determined by the test sample (the alcohol ADH catalytic group) relative to the corresponding control sample (the water group, as the basal NADH level).

[3] = Pharmacokinetic analysis, serum level after corylin oral gavage; assay type: in vivo, mouse; conditions: mice
Method: The blood samples of the C57BL/6J male mice (n=4) were collected at 1, 3, 6, 9, 12 and 15 h after corylin oral gavage, and the serum samples were then separated therefrom. Each serum sample (100 μl) was mixed with ice-cold acetonitrile (150 μl) at 4° C. for 1 hour, and then centrifuged at 15,000×g and 4° C. for 15 min. After centrifugation, the supernatant (150 μl) was harvested, and 150 μl ddH2O was added. The resulting mixture was analyzed by a LC/FTMS system.

HaCaT cells [4] = experiment: UVB-induced DNA breakage analysis; assay type: cell-based; conditions: 100 μM pretreatment 24 hours, UVB 30 mJ/m^2
Method: HaCaT cells were seeded into a 12-well plate (7×10^4 cells/well), and incubated with 100 μM corylin or 100 μM neobavaisoflavone, or without drugs, for 24 hours, before subjected to UVB irradiation at 30 mJ/m^2. The irradiated cells were collected, washed, and mixed with 1% agarose gel solution 140 μl at 35° C., before being applied onto slides. The slides were placed at 4° C. for 1 hour for solidifying the gel, immersed in a lysis buffer for at least 1 hour and subsequently in an electrophoresis fluid for 40 minutes, and then subjected to gel-electrophoresis at 25 V for 20 minutes. The slides were immersed in a neutralizing solution for 5 minutes, mounted with 30 μl mounting medium with DAPI, and observed under a fluorescence microscope. The results were analyzed with the software OPEN COMET to quantify the breakage and the repair of the DNA in the cells.

HUVECs [5] = experiment: Senescence-associated (SA)-β-gal staining of HUVECs; assay type: cell-based, human; conditions: late stage HUVECs (PDL9), vs control without corylin
Method: HUVECs at 90% confluency were collected, washed, and fixed with 2% formaldehyde and 0.2% glutaraldehyde for 5 minutes. The cells were then subjected to staining by incubation with a staining solution (40 mmol/l citric acid, sodium phosphate, pH 6.0, 1 mg/ml 5-bromo-4-chloro-3-isolyl-β-D-galactoside (X-gal, Sigma), 5 mmol/l potassium ferrocyanide, 5 mmol/l potassium ferricyanide, 150 mmol/l NaCl, and 2 mmol/l MgCl2) at 37° C. for 18 hours. The results of SA-β-gal-positive cells were observed by microscopy, and were counted for over 300 cells in at least three independent fields.

p21 = experiment: Western blot of p21 expression in HUVECs; assay type: cell-based, human; conditions: late stage HUVECs (PDL9)
Method: HUVECs were cultured in M199 medium supplemented with 4-(2-hydroxyethyl)-1-piperazineethanesulfonic acid (HEPES), endothelial cell growth supplement (ECGS; Millipore), heparin, NaHCO3, L-glutamine, sodium pyruvate, and 20% fetal bovine serum (FBS; final concentration). HaCaT cells were cultured in DMEM supplemented with 10% FBS and 2 mM glutamine. The cells were grown in an atmosphere of 5% CO2 at 37° C., and passaged to maintain under 90% confluency. The cells were propagated until senescence, and those in every passage were collected for further analysis, numbers of which were determined when sub-cultured. Population doublings (PDs) were estimated following the equation: PDL=3.32 (log(total viable cells at harvest/total viable cells at seeding). The cells were harvested and lysed in RIPA lysis buffer containing 1% of Triton X-100 and a protease inhibitor cocktail, and total protein concentrations were measured with a protein assay kit. Proteins in the samples of the lysates with the same amounts of total protein were separated by sodium dodecyl sulfate polyacrylamide gel electrophoresis (SDS-PAGE) (10% polyacrylamide gels) and analyzed by immunoblotting. Primary antibodies against p21 and β-actin were applied to detect the corresponding proteins. […] Protein quantification was performed by software.

aged C57BL/6J mice = experiment: Survival of aged mice fed HFD with or without corylin; assay type: in vivo, mouse; conditions: corylin supplement 0.1% (w/w) in HFD
Method: (§1) All animal procedures were complied with relevant regulations and were conducted under approved protocols (Protocol #CGU15-150) by Research Guidelines for the Care and Use of Laboratory Animals, Chang Guan University. C57BL/6J male mice (34 weeks of age) were maintained at 23±1° C. and at humidity of 45-65% with a 12 h dark/light cycle. After reaching 40 weeks of age, the mice were randomly divided into two groups: Group I (HFD), fed a HFD with 54% fat (n=30), and Group II (HFD/C), fed a HFD containing corylin (1 g corylin/1 kg HFD) (or the dose of corylin was 50 mg/kg) (n=30).
(§2) The ability of corylin to delay the aging process in mice was examined in the present example. To this purpose, aged C57BL/6J mice (forty-week-old) were fed with a HFD or a HFD plus 0.1% (w/w) corylin (HFD/C) ad libitum for the rest of their lives.

[6] = Body weight and food intake of aged HFD-fed mice; assay type: in vivo, mouse; conditions: entire course of the experiment
Method: as §1, §2

HaCaT cells [7] = experiment: UVB-induced apoptosis analysis (crystal violet); assay type: cell-based; conditions: 5 μM corylin or 20 μM neobavaisoflavone 4 hours, UVB 14 mJ/m^2 four runs
Method: HaCaT cells were seeded into a 12-well plate (7×10^4 cells/well), and incubated with 5 μM corylin or 20 μM neobavaisoflavone, or without drugs, for 4 hours, before subjected to UVB irradiation at 14 mJ/m^2 for four runs. At 24 hours, the irradiated cells were collected, washed, and fixed with 4% paraformaldehyde, before being immersed in 0.5% crystal violet solution for 15 minutes at room temperature. The cells were washed, air-dried, photographed, and immersed in 50% ethanol containing 0.1% glacial acetic acid to remove the crystal violet dye. The absorbance at 550 nm was read by a microplate reader.

SMILES | population doubling level (PDL) of HUVECs (HUVECs [1]) | intracellular NAD+ level (HaCaT cells [2]) | concentration at 1 h ([3]; male, C57BL/6J, mouse, serum, 1 hour after oral gavage) | concentration at 3 h ([3]; male, C57BL/6J, mouse, serum, 3 hours after oral gavage) | concentration at 6 h ([3]; male, C57BL/6J, mouse, serum, 6 hours after oral gavage) | concentration at 9 h ([3]; male, C57BL/6J, mouse, serum, 9 hours after oral gavage) | concentration at 12 h ([3]; male, C57BL/6J, mouse, serum, 12 hours after oral gavage) | concentration at 15 h ([3]; male, C57BL/6J, mouse, serum, 15 hours after oral gavage) | concentration at 12 h ([3]; 1 hour after oral gavage) | concentration at 12 h ([3]; 15 hours after oral gavage) | UVB-induced DNA breakage (HaCaT cells [4]) | number of SA-β-gal-positive senescent cells (HUVECs [5]) | expression level of p21 (p21) | lifespan of aged mice fed on high fat diet (aged C57BL/6J mice) | trajectory of body weight vs HFD group [6] | trajectory of food intake vs HFD group [6] | survival rate of the cell under UVB irradiation (HaCaT cells [7])
CC1(C)C=Cc2cc(-c3coc4cc(O)ccc4c3=O)ccc2O1 [corylin] | increase | elevate | 680 nM | 500 nM | 490 nM | 540 nM | 390 nM | 260 nM | 680 nM | 260 nM | completely suppressed | decrease | decreased | significantly increased | did not diverge | did not diverge | significantly increased
CC(C)=CCc1cc(-c2coc3cc(O)ccc3c2=O)ccc1O [neobavaisoflavone] |  | elevate |  |  |  |  |  |  |  |  | completely suppressed |  |  |  |  |  | significantly increased
